In brackets after ≈: the same amount, converted by molar mass.
Experiments:
Aqueous solubility = type: physicochemical
E. coli ΔtolC (JW5503) = assay: MIC, broth microdilution (CLSI); type: cell-based, Escherichia coli; conditions: Escherichia coli
Description: (§1) II. Materials and Methods for Biological Experiments
(§2) S. aureus ATCC 29213 and E. coli MG1655 were obtained from the American Type Culture Collection (ATCC). E. coli BW25113 and E. coli JW5503 were obtained from the Keio Collection. AR-bank strains were obtained from the Centers for Disease Control and Prevention and FDA Antibiotic Resistance Isolate Bank.
(§3) Antimicrobial susceptibility tests
(§4) Susceptibility testing was performed in biological triplicate, unless noted otherwise, using the micro-dilution broth method as outlined by the Clinical and Laboratory Standards Institute. Bacteria were cultured with cation-adjusted Mueller Hinton broth (Sigma Aldrich, catalogue number: 90922). […]
(§5) NH3: m/z 391.2 → 171.0. Fabimycin: m/z 405.3 → 145.3. Power analysis was not used to determine the number of replicates. Error bars represent the standard error of the mean of three biological replicates. All compounds evaluated in biological assays were ≥95% pure.

E. coli FabI = target: T1, E. coli FabI (Escherichia coli, UniProt P0AEK4); assay: In vitro FabI enzymatic inhibition assay; type: biochemical; conditions: EcFabI; Morrison's quadratic fit; 5 nM enzyme; read-out: Ki app
T1 construct: His(6) with TEV site (cleaved yes); made in house; host or cells: E. coli BL21(DE3)
T1 sequence (P0AEK4 whole entry): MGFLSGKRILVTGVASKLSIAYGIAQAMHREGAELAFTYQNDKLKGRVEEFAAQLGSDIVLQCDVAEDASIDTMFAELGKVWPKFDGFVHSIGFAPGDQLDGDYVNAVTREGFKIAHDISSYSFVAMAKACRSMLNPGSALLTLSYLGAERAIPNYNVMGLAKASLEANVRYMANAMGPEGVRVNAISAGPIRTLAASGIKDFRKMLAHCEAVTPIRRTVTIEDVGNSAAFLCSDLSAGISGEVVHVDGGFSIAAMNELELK
Description: (§6) supplemented with 100 µg/mL ampicillin at 37°C until OD600 reached 0.6-0.7. The cells were induced with 1mM IPTG and incubated for 20 hours at 18°C and spun down at 8000 rpm for 15 minutes. Cell pellet was resuspended in the lysis buffer (50 mM Tris-HCl pH 8.0, 500 mM Na Cl, 20 mM imidazole, 10% glycerol, 0.5 mM TCEP, protease inhibitor and Lysonase) and passed through microfluidizer followed by centrifugation and filtration to remove cell debris. The clarified lysate was supplemented with 20 mM imidazole and passed over a HisTrap column (Cytiva) pre-equilibrated with the wash buffer (50 mM Tris-HCl pH 8.0, 500 mM NaCl, 20 mM imidazole, 10% glycerol, 0.5 mM TCEP). The column was washed with the wash buffer and eluted over a 20-500 mM imidazole gradient. The appropriate fractions were pooled, and the histidine tag was removed by TEV cleavage. The protein mixture was passed over a HisTrap column to separate the cleaved protein from the uncleaved ones. The cleaved protein was pooled and passed over an S75 size exclusion column (GE LifeSciences) pre-equilibrated with 50 mM Tris-HCl pH 8.0, 500 mM NaCl, 0.5 mM TCEP and 10% glycerol. Fractions containing pure protein were pooled, concentrated at 10 mg/mL and stored at -80°C. […]
(§7) In vitro FabI enzymatic inhibition assay
(§8) Recombinant E. coli and A. baummani FabI enzymes were used in a continuous NADH absorbance assay (20 µL in 384w format). Compounds and the Crotonyl-CoA substrate (Sigma–Aldrich 28007) were dispensed into a plate (GeinerBio-One 781101). The reaction was initiated by the addition of a reaction master mix solution containing enzyme and NADH (Sigma–Aldrich N8129) suspended in reaction buffer (50 mM HEPES pH 7.4, 150 mM NaCl, 1 mM EDTA, 0.01 mg/mL BSA, 0.01% Tween). Final concentrations were 5 nM enzyme, 150 μM Crotonyl-CoA, 380 μM NADH, 0.05% DMSO in 1x reaction buffer. After shaking for 5 seconds the reaction was monitored at NADH absorbance (340nm, 25°C) using a Molecular Devices SpectraMax M5 microplate reader. The linear portion of the progress curve was fit using plate-reader software. Percentage activity was calculated relative to DMSO only and no-substrate controls in each plate and the data were fit to Morrison’s quadratic using Graphpad Prism 9.3 to obtain apparent inhibition constant (Ki app) values. […]
(§9) 480 Real-Time PCR System as a function of a temperature ramp (25-95°C; 0.1°/s) and the Tm was calculated using the […]

A. baumannii FabI = A. baumannii FabI (Acinetobacter baumannii, UniProt D0CAD5); assay: In vitro FabI enzymatic inhibition assay; type: biochemical; conditions: AbFabI; Morrison's quadratic fit; 5 nM enzyme; read-out: Ki app
Chain of A. baumannii FabI (D0CAD5 entry or part of it): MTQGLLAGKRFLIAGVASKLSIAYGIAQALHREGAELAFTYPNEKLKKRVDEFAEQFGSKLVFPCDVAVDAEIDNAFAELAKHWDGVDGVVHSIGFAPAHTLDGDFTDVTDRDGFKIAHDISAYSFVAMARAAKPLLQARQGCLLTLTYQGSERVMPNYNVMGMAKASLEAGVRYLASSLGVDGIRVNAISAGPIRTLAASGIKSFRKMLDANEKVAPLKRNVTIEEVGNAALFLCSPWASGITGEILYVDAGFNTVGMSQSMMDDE
Description: as §6, §7, §8, §9

S. aureus ATCC 29213 = assay: MIC, broth microdilution (CLSI); type: cell-based; conditions: Staphylococcus aureus, ATCC29213; S. aureus 29213
Description: as §1, §2, §3, §4, §5

K. pneumoniae BAA-2472 = assay: MIC, broth microdilution (CLSI); type: cell-based; conditions: Klebsiella pneumoniae, BAA2472
Description: as §1, §2, §3, §4, §5

K. pneumoniae AR-0066 = assay: MIC, broth microdilution (CLSI); type: cell-based; conditions: Klebsiella pneumoniae, AR0066; K. pneumoniae AR-0066 clinical isolate
Description: as §1, §2, §3, §4, §5

K. pneumoniae AR-0560 = assay: MIC, broth microdilution (CLSI); type: cell-based; conditions: Klebsiella pneumoniae, AR0560; K. pneumoniae AR-0560 clinical isolate
Description: as §1, §2, §3, §4, §5

E. coli MG1655 = assay: MIC, broth microdilution (CLSI); type: cell-based; conditions: Escherichia coli
Description: as §1, §2, §3, §4, §5

A. baumannii AR-0299 = assay: MIC, broth microdilution (CLSI); type: cell-based; conditions: Acinetobacter baumannii, AR0299; A. baumannii AR-0299 clinical isolate; † = dose-independent trailing growth
Description: as §1, §2, §3, §4, §5

A. baumannii AR-0033 = assay: MIC, broth microdilution (CLSI); type: cell-based; conditions: Acinetobacter baumannii, AR0033; A. baumannii AR-0033 clinical isolate; † = dose-independent trailing growth
Description: as §1, §2, §3, §4, §5

E. coli AR-0085 = assay: MIC, broth microdilution (CLSI); type: cell-based; conditions: Escherichia coli, AR0085; E. coli AR-0085 clinical isolate
Description: as §1, §2, §3, §4, §5

A. baumannii AR-0273 = assay: MIC, broth microdilution (CLSI); type: cell-based; conditions: Acinetobacter baumannii, AR0273; A. baumannii AR-0273 clinical isolate
Description: as §1, §2, §3, §4, §5

E. coli AR-0048 = assay: MIC, broth microdilution (CLSI); type: cell-based; conditions: Escherichia coli, AR0048; E. coli AR-0048 clinical isolate
Description: as §1, §2, §3, §4, §5

A. baumannii AR-0313 = assay: MIC, broth microdilution (CLSI); type: cell-based; conditions: Acinetobacter baumannii, AR0313; A. baumannii AR-0313 clinical isolate; † = dose-independent trailing growth
Description: as §1, §2, §3, §4
(§10) Error bars represent the standard error of the mean of three biological replicates. All compounds evaluated in biological assays were ≥95% pure.

K. pneumoniae AR-0113 = assay: MIC, broth microdilution (CLSI); type: cell-based; conditions: Klebsiella pneumoniae, AR0113; K. pneumoniae AR-0113 clinical isolate
Description: as §1, §2, §3, §4, §10

Cc1c(CN(C)C(=O)/C=C/c2cnc3c(c2)CC[C@H](NC(=O)OC(C)(C)C)C(=O)N3)oc2ccccc12 [(S)-11]
aqueous solubility (Aqueous solubility): limited aqueous solubility | MIC (E. coli ΔtolC (JW5503)): 0.125 µg/mL (≈ 0.248 µM) | Ki (E. coli FabI): 60 ± 10 nM | Ki (A. baumannii FabI): 947 ± 234 nM | MIC (S. aureus ATCC 29213): 0.016 µg/mL (≈ 0.0317 µM) | MIC (K. pneumoniae BAA-2472): 32 µg/mL (≈ 63.4 µM) | MIC (K. pneumoniae AR-0066): 64 µg/mL (≈ 127 µM) | MIC (K. pneumoniae AR-0560): 32 µg/mL (≈ 63.4 µM) | MIC (E. coli MG1655): 8 µg/mL (≈ 15.9 µM) | MIC (A. baumannii AR-0299): 8 µg/mL (≈ 15.9 µM) | MIC (A. baumannii AR-0033): 64 µg/mL (≈ 127 µM) | MIC (E. coli AR-0085): 8 µg/mL (≈ 15.9 µM) | MIC (A. baumannii AR-0273): 8 µg/mL (≈ 15.9 µM) | MIC (E. coli AR-0048): 16 µg/mL (≈ 31.7 µM) | MIC (A. baumannii AR-0313): 64 µg/mL (≈ 127 µM) | MIC (K. pneumoniae AR-0113): 32 µg/mL (≈ 63.4 µM)
